According to a melting point compilation (Tetko et al.; mined from patent text by program, amines drawn as free bases though some values may be those of a salt):

Row | Structure (SMILES) | melting point
1 | Fc1ccc(-c2ncn(CCCN3CCOCC3)c2-c2ccnc(Cl)c2)cc1 | 97 to 97.5 °C
2 | O=C(NCc1ccc(Cl)cc1)c1cn(-c2ccccn2)c2oc(CCl)cc2c1=O | 224 to 227 °C
3 | Cc1ccc2oc(=O)n(-c3ccnc(N)c3)c2c1 | 173 to 174 °C
4 | Cc1cc2c(N3CCCC3C)ccc(C#N)c2o1 (configuration not stated) | 78 to 80 °C
5 | CCCCCCCOC(=O)C(=C1NCCCS1)[N+](=O)[O-] | 59 to 60 °C
6 | CCOC(=O)CNC(=O)N1CCn2c(c(C(N)=O)c(Cl)c2-c2ccccc2)C1 | 94 to 97 °C
7 | CC1(C)Cc2cccc(S(N)(=O)=O)c2S1 | 102 to 104 °C
8 | COc1cc2c(cc1OC)C(c1cccc(C(F)(F)F)c1)=NN=C(C)C2 | 134 to 135 °C
9 | CC(C)N(CCC1(c2ccccc2)C(=O)NCN2CCCCC21)C(C)C (configuration not stated) | 164 to 166 °C
10 | OCC=Cc1ccc(Br)cc1F | 38 to 40 °C
11 | CCOCCn1cc2c(C3C(=O)Nc4ccc(Br)cc43)nc(NCCN3CCOCC3)nc2n1 (configuration not stated) | 276 to 278 °C
12 | CCCCc1nc2c(N)nc3ccccc3c2n1CCOCCON=C(C)C | 116 to 118 °C
13 | NS(=O)(=O)c1cccc(N/C=C2\C(=O)Nc3ccccc32)c1 | > 250 °C
14 | O=C1c2cc(C(F)(F)F)c(C(F)(F)F)cc2C(=O)c2cc3ccccc3cc21 | > 280 °C
15 | Fc1ccc(N2CCN(Cc3n[nH]c4ccccc34)CC2)cc1 | 191 to 192 °C
16 | CCOC(=O)C1=C(NC(C)=O)C(=O)O[C@@H]1C | 119 to 122 °C
17 | COc1cc(O)c(C=O)cc1OC | 104 to 105 °C
18 | N#Cc1c(-c2ccc(Cl)c(Cl)c2)[nH]c(I)c1I | > 230 °C
19 | OC1CSC(Oc2cncc(-c3ccc(C(F)(F)F)cc3)c2)C(O)C1O (configuration not stated) | 218 to 219 °C
20 | CCOC(=O)c1ncc2[nH]c3ccc(N)cc3c2n1 | 256 to 258 °C
21 | N#CCc1ccc2c(c1)Cc1cccnc1O2 | 166 to 167 °C
22 | CC(=O)Nc1ccc(NCc2cnc3nc(N)nc(N)c3n2)cc1 | > 260 °C
23 | CC1(C)OCCC2C(C3(O)CCSC3)C(=O)N21 (configuration not stated) | 113 to 115 °C

Row | Structure (SMILES) | melting point
24 | O=C(CCc1cccnc1)NCCCCC1CCN(C(c2ccccc2)c2ccccc2)CC1 | 139 °C
25 | c1ccc(CCc2nc(COc3ccc(CCCn4ccnc4)cc3)co2)cc1 | 67 to 68 °C
26 | CCCCCCCN(C(=O)Nc1ccccc1CCc1cc(C(C)(C)C)c(O)c(C(C)(C)C)c1)C1CCCCCC1 | 70 to 72 °C
27 | COc1cc2c(cc1Br)CC(C)N(C(=O)C1CC1)N=C2c1ccc([N+](=O)[O-])cc1 (configuration not stated) | 194 to 196 °C
28 | O=C1CC(=O)CC(c2ccc(Cl)c(Cl)c2)C1 | 198 to 200 °C
29 | Cc1cc(F)c([N+](=O)[O-])cc1[N+](=O)[O-] | 76 °C
30 | N#Cc1oc2cc(Cl)ccc2c1O | 205 °C
31 | COc1cc(NCCC(=O)O)c(C(C)=O)cc1OC | 150 to 152 °C
32 | Cc1nc(-c2cc(-n3c(=O)cc(C(F)(F)F)n(C)c3=O)ccc2Cl)sc1C | 200 °C
33 | CC12CCCc3cc(Nc4ncc(C(=O)O)cn4)cc(c31)CCC2 | > 300 °C
34 | CC(C)(C)OC(=O)NCC1CCn2c(cc3ccccc32)C1 (configuration not stated) | 80 to 85 °C
35 | O=S(=O)(C1CC1)C(F)(F)C(O)(Cn1cncn1)c1ccc(F)cc1F (configuration not stated) | 130 to 132 °C
36 | CC(/C=C/c1ccccc1-c1ccc2c(c1)C(C)(C)CCC2(C)C)=C\C(=O)O | 178 to 179 °C
37 | COc1cnc(CSc2nc3cc4c(cc3[nH]2)OC(F)(F)O4)cc1OC | 189 to 191 °C
38 | N#Cc1cnc2c(sc3ccccc32)c1Nc1ccc(Cl)cc1Cl | 260 to 262 °C
39 | CCC1(CC)Cc2cc(O)c(Cl)c(Cl)c2C1=O | 184 °C
40 | O=c1cc(O)c(=O)c2ccc(O)cc2[nH]1 | > 350 °C
41 | CCCCC(CC)COc1ccc2c(c1)C(=O)c1ccc(OCC(CC)CCCC)cc1C2=O (configuration not stated) | 49 to 51 °C
42 | CCOC(=O)C1=C(C)Nc2nc(N)nc(N)c2C1c1ccc(Cl)c(Cl)c1 (configuration not stated) | 244 °C
43 | Nc1c(F)c(N2CCC(n3ccnn3)CC2)c(F)c2c1c(=O)c(C(=O)O)cn2C1CC1 | 274 to 276 °C
44 | ON=C1CCn2c1cc1ccccc12 | > 220 °C
45 | CCOC(=O)C=Cc1ccc(OC2CCCCO2)cc1 (configuration not stated) | 52 to 53 °C
46 | CC1(C)CC(=O)C2=C(C1)NC1=C(C(=O)CC(C)(C)C1)C2c1ccc(Cl)c(Sc2ccccc2)c1 | 202 to 204 °C

Next, values leading:

Row | melting point | Structure (SMILES)
47 | 153 to 154 °C | COC(CC(=O)c1ccc(Br)cc1)C(=O)c1ccc(Br)cc1 (configuration not stated)
48 | 130 to 132 °C | COC(=O)CCc1cc2cc(C(F)(F)F)ccc2n1S(=O)(=O)c1ccc2ncsc2c1
49 | 145 to 146 °C | CN(C)c1cccc2c(S(=O)(=O)Nc3ccc(Cl)nc3)cccc12
50 | 207 °C | COc1cc(C(=O)O)ccc1Cc1c(Cl)n(C)c2cc(Cl)c(CCNC(=O)N(C)C)cc12
51 | 185 to 188 °C | CC(C)(C)C(=O)Oc1ccc(N=Nc2ccc(OC(=O)C(C)(C)C)cc2)cc1
52 | 207 to 211 °C | O=C1NCCN(Cc2ccc(OCc3ccccc3)cc2)C1c1ccccc1 (configuration not stated)
53 | 165 to 167 °C | Cc1cc(C(=O)N2CCOCC2)ncc1C(c1cc(F)ccc1F)S(=O)(=O)c1ccc(F)cc1 (configuration not stated)
54 | 90 to 93 °C | CCOC(Cc1ccc(OCCN2C(=O)COc3ccccc32)cc1)C(=O)O (configuration not stated)
55 | 156 to 157 °C | COc1nc(C)cnc1NS(=O)(=O)c1cccnc1-c1ccc(OCC(C)(C)O)cc1
56 | 125 to 127 °C | O=[N+]([O-])c1cccc(OCc2ncc3ccccc3n2)c1
57 | > 250 °C | Cc1cccc(C)c1NC(=O)c1ccc(CN2C(=O)C3(COc4cc5c(cc43)CCO5)c3ccccc32)cc1 (configuration not stated)
58 | 78 °C | CCC(=O)CC(=O)c1ccc(C2CCC(CC)CC2)cc1 (configuration not stated)
59 | 67 to 67.6 °C | COC(=O)C(NC(=O)OC(C)(C)C)c1ccc(OS(=O)(=O)C(F)(F)F)cc1 (configuration not stated)
60 | 103 to 104 °C | CC(C)(C)OC(=O)NCC(=O)NCC(=O)Oc1ccc(-c2nn(C3CCCC3)c3c(F)cccc23)cc1
61 | 109 to 110 °C | COC=C(C(=O)OC)c1ccccc1Oc1ccn(-c2ccc(Cl)cc2)n1
62 | 249 °C | Cc1nn(CC(O)c2ccc(Cl)cc2)c(=O)n1-c1ccc(N2CCN(c3ccc(O)cc3)CC2)cc1 (single isomer, unassigned; (+))
63 | 139 to 140 °C | CC(=O)OC1(Cc2ccncc2)C(=O)N(N2CCCCC2)c2ccccc21 (configuration not stated)
64 | 98 to 100 °C | CC(C)c1oc(-c2ccccc2)c(-c2ccc(F)cc2)c1C=CC=O
65 | 124 °C | O=C(Nc1ccc(Cl)cc1)O[C@@H]1CN=C(c2ccccc2)O[C@H]1c1ccccc1 (racemic)
66 | 165 to 168 °C | O=C(CBr)Nc1ccccc1C(=O)O
67 | 196 to 197 °C | O=C(Nc1ccc(F)cc1F)Nc1oc(=O)c2ccc(Cl)cc2c1-c1ccccc1
68 | 76 to 78 °C | Cc1ccc(C(=O)c2noc(CC#N)n2)cc1
69 | 168 °C | COc1ccc2oc(C(=O)O)c(OC)c2c1
70 | 81.5 to 82.5 °C | O=C(NNC(=O)c1ccccc1C(F)(F)F)c1ccccc1Cl
71 | 175 °C | CCCCCCCC(=O)N(C)Cc1cc(-c2ccc(C=CC(=O)O)cc2)cs1
72 | 61 to 63 °C | COC(=O)CC[C@H](NC(=O)OCc1ccccc1)C(=O)O
